Laboratory results reported in ChEMBL document CHEMBL5465560, “Selectivity Literature for EUbOPEN Chemogenomic Library” (2024).

Tests used:
[1] = molecular target: T1, Dual specificity tyrosine-phosphorylation-regulated kinase 3 (Homo sapiens, UniProt O43781); assay: Selectivity interaction (Radioactive assay (Reaction Biology)) EUB0001046a DYRK3
T1 sequence (O43781 whole entry): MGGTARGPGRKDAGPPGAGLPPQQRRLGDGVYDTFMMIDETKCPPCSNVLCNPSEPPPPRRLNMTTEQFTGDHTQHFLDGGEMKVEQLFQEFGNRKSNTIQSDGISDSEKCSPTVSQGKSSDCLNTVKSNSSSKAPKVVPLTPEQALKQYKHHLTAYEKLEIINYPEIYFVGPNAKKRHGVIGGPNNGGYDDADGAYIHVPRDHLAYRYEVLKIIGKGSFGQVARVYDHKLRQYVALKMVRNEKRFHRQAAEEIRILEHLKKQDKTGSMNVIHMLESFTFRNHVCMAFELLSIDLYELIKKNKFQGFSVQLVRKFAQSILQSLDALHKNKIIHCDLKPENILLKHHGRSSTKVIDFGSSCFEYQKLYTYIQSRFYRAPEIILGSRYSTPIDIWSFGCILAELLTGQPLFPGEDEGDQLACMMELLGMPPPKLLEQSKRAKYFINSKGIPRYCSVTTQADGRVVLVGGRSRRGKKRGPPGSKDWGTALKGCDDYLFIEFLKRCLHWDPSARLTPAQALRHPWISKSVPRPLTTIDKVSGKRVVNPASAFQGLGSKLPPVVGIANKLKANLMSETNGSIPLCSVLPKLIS

[2] = molecular target: Dual specificity tyrosine-phosphorylation-regulated kinase 1B (Homo sapiens, UniProt Q9Y463); assay: Selectivity interaction (Radioactive assay (Reaction Biology)) EUB0001046a DYRK1B
Chain of Dual specificity tyrosine-phosphorylation-regulated kinase 1B (Q9Y463 whole entry): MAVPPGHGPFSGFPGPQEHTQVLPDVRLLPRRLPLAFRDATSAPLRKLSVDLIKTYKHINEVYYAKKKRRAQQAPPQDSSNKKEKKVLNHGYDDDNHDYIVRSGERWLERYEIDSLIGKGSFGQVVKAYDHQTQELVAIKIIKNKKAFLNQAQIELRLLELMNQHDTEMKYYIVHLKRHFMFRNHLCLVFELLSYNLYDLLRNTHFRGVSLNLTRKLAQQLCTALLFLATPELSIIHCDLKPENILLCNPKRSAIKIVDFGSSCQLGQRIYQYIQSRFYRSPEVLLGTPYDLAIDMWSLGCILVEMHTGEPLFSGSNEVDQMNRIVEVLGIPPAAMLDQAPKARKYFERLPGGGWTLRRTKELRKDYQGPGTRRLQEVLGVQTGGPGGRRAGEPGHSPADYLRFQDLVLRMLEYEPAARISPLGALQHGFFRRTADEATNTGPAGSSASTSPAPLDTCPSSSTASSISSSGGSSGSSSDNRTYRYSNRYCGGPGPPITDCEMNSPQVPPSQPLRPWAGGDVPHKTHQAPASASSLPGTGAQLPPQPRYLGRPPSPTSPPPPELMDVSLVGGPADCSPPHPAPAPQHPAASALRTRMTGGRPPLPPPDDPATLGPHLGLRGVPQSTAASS

[3] = molecular target: SRSF protein kinase 2 (Homo sapiens) (UniProt P78362)
[4] = molecular target: Dual specificity protein kinase CLK3 (Homo sapiens, UniProt P49761); assay: Selectivity interaction (Radioactive assay (Reaction Biology)) EUB0001046a CLK3
Chain of Dual specificity protein kinase CLK3 (P49761 whole entry): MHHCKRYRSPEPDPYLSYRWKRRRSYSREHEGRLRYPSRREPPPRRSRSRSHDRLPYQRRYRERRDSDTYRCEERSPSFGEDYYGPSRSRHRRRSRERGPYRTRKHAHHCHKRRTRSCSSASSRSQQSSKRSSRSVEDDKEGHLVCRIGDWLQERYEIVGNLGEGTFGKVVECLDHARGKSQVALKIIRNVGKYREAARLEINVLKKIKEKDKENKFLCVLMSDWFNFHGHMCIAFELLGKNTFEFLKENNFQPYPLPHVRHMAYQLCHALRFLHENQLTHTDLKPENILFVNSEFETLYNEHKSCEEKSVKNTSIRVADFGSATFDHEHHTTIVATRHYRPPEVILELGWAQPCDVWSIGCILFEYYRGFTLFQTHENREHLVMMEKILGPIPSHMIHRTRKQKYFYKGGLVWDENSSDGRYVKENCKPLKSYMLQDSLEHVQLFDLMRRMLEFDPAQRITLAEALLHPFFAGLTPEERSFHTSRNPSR

[5] = molecular target: Dual specificity protein kinase CLK2 (Homo sapiens, UniProt P49760); assay: Selectivity interaction (Radioactive assay (Reaction Biology)) EUB0001046a CLK2
Chain of Dual specificity protein kinase CLK2 (P49760 whole entry): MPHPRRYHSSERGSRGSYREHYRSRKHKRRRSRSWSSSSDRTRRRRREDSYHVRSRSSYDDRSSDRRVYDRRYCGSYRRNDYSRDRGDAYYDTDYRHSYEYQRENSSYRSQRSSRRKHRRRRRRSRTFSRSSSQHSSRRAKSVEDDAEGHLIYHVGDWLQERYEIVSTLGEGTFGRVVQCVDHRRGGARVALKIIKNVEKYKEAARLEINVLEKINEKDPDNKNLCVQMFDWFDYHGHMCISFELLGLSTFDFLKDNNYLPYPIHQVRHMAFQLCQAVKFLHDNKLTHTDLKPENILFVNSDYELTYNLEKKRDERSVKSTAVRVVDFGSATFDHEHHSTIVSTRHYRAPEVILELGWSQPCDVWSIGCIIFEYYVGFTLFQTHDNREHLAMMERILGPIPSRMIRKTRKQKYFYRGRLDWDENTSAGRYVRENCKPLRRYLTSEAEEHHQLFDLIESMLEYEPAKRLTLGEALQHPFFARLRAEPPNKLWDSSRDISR

SRSF protein kinase 1 [6] = molecular target: T2, SRSF protein kinase 1 (Homo sapiens, UniProt Q96SB4)
T2 sequence (Q96SB4 whole entry): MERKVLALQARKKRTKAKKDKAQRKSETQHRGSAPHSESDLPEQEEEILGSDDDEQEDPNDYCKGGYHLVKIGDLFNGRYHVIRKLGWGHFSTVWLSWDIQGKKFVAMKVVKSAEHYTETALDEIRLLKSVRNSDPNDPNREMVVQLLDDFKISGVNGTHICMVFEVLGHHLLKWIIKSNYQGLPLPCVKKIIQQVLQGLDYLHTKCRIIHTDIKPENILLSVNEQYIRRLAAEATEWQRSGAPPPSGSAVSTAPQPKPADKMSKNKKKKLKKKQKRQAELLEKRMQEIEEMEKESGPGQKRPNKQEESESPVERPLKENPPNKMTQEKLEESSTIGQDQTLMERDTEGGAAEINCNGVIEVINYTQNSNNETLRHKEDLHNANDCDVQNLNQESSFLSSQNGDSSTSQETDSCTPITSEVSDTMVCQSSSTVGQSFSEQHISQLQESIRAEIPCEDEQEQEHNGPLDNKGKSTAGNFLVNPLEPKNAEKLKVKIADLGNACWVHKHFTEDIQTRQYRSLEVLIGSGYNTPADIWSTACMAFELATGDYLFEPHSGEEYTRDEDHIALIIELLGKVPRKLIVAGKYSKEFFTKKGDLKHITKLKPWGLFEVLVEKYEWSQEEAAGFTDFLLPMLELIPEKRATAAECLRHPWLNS

[7] = molecular target: Dual specificity protein kinase CLK4 (Homo sapiens, UniProt Q9HAZ1); assay: Selectivity interaction (Radioactive assay (Reaction Biology)) EUB0001046a CLK4
Chain of Dual specificity protein kinase CLK4 (Q9HAZ1 whole entry): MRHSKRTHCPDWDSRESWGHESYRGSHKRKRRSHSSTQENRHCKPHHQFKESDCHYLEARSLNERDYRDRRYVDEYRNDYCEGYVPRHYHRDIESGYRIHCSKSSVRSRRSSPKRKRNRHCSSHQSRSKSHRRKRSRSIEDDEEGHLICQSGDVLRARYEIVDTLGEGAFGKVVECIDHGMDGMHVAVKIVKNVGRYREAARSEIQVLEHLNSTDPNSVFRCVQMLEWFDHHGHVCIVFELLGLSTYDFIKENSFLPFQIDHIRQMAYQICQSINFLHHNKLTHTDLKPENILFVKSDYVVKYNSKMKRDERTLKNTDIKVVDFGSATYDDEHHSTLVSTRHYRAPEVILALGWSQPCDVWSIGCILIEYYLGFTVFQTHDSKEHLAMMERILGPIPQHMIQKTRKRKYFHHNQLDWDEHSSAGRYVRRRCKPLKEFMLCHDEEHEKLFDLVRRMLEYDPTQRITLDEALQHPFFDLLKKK

[8] = molecular target: Dual specificity tyrosine-phosphorylation-regulated kinase 1A (Homo sapiens, UniProt Q13627); assay: Selectivity interaction (Radioactive assay (Reaction Biology)) EUB0001046a DYRK1A
[9] = molecular target: Dual specificity protein kinase CLK1 (Homo sapiens, UniProt P49759); assay: Selectivity interaction (Radioactive assay (Reaction Biology)) EUB0001046a CLK1
[10] = molecular target: T3, Dual specificity tyrosine-phosphorylation-regulated kinase 2 (Homo sapiens, UniProt Q92630); assay: Selectivity interaction (Radioactive assay (Reaction Biology)) EUB0001046a DYRK2
T3 sequence (Q92630 whole entry): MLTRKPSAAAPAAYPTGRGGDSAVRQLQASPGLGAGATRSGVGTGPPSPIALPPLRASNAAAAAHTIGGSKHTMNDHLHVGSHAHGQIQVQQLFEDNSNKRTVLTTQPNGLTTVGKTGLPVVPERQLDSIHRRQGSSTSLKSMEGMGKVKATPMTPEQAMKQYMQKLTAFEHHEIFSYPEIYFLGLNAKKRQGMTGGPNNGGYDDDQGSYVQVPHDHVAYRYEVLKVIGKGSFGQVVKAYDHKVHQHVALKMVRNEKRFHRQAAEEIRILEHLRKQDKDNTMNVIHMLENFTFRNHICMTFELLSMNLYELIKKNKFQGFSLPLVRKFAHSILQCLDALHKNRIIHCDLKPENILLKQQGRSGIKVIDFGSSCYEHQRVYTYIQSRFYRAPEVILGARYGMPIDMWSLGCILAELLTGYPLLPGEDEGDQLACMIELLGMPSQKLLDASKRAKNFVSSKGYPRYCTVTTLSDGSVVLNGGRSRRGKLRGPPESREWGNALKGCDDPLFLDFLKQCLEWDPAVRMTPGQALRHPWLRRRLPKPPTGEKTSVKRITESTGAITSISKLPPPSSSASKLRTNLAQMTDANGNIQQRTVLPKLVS

SRSF protein kinase 1 [11] = molecular target: T2, SRSF protein kinase 1; remark: listed apart in the source
[12] = molecular target: Serine/threonine-protein kinase mTOR (Homo sapiens, UniProt P42345); assay: Selectivity interaction (Kinase panel (KinaseGlo Luminescent Kinase Assay, Promega)) EUB0000678a MTOR
[13] = Selectivity interaction (Kinase panel (cellular selectivity, Bright-Glo proliferation assay in BaF3 Cell line, Promega)) EUB0000678a RET
[14] = Selectivity interaction (Kinase panel (cellular selectivity, Bright-Glo proliferation assay in BaF3 Cell line, Promega)) EUB0000678a FLT1
[15] = molecular target: T4, Interleukin-1 receptor-associated kinase 4 (Homo sapiens, UniProt Q9NWZ3); assay: Selectivity interaction (Kinase panel (Enzymatic assay, microfluidic mobility shift readout, Caliper lifesciences, conc. ATP = Km for each kinase)) EUB0000678a IRAK4
T4 sequence (Q9NWZ3 whole entry): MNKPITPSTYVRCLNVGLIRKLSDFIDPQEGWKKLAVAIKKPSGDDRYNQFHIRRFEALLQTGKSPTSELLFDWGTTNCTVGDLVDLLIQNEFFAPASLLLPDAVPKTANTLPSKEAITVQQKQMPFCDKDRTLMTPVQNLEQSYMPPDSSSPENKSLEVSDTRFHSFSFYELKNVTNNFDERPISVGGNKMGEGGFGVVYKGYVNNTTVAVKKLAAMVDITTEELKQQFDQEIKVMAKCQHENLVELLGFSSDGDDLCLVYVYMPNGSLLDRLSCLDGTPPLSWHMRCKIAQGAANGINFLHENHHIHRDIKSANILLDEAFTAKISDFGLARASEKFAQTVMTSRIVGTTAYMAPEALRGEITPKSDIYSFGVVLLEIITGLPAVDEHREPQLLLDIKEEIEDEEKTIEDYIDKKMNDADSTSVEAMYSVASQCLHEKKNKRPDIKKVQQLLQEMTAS

[16] = molecular target: Phosphatidylinositol 3-kinase catalytic subunit type 3 (Homo sapiens, UniProt Q8NEB9); assay: Selectivity interaction (Kinase panel (KinaseGlo Luminescent Kinase Assay, Promega)) EUB0000678a PIK3C3
[17] = molecular target: Tyrosine-protein kinase JAK2 (Homo sapiens, UniProt O60674); assay: Selectivity interaction (Kinase panel (Enzymatic assay, microfluidic mobility shift readout, Caliper lifesciences, conc. ATP = Km for each kinase)) EUB0000678a JAK2
[18] = Selectivity interaction (Kinase panel (cellular selectivity, Bright-Glo proliferation assay in BaF3 Cell line, Promega)) EUB0000678a SRC
[19] = Selectivity interaction (Kinase panel (cellular selectivity, Bright-Glo proliferation assay in BaF3 Cell line, Promega)) EUB0000678a LYN
[20] = molecular target: Tyrosine-protein kinase JAK1 (Homo sapiens, UniProt P23458); assay: Selectivity interaction (Kinase panel (Enzymatic assay, microfluidic mobility shift readout, Caliper lifesciences, conc. ATP = Km for each kinase)) EUB0000678a JAK1
[21] = molecular target: Mitogen-activated protein kinase 14 (Homo sapiens, UniProt Q16539); assay: Selectivity interaction (Kinase panel (Enzymatic assay, microfluidic mobility shift readout, Caliper lifesciences, conc. ATP = Km for each kinase)) EUB0000678a MAPK14
[22] = Selectivity interaction (Kinase panel (cellular selectivity, Bright-Glo proliferation assay in BaF3 Cell line, Promega)) EUB0000678a KDR
[23] = molecular target: T5, Calcium/calmodulin-dependent protein kinase type II subunit alpha (Homo sapiens, UniProt Q9UQM7); assay: Selectivity interaction (Kinase panel (Enzymatic assay, microfluidic mobility shift readout, Caliper lifesciences, conc. ATP = Km for each kinase)) EUB0000678a CAMK2A
T5 sequence (Q9UQM7 whole entry): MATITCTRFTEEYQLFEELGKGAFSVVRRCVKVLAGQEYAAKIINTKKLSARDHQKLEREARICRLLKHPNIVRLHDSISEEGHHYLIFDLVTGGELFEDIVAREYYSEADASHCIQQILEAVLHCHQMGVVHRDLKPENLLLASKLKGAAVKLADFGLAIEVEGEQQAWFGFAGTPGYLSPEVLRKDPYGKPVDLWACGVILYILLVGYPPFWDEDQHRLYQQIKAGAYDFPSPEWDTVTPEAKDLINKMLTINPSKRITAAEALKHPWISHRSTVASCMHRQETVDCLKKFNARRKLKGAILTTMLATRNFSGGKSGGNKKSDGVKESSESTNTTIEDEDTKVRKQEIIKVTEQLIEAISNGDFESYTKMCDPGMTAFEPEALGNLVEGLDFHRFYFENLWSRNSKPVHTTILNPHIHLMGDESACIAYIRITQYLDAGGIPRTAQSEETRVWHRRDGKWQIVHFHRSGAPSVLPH

[24] = molecular target: Ribosomal protein S6 kinase alpha-1 (Homo sapiens, UniProt Q15418); assay: Selectivity interaction (Kinase panel (Enzymatic assay, microfluidic mobility shift readout, Caliper lifesciences, conc. ATP = Km for each kinase)) EUB0000678a RPS6KA1
Chain of Ribosomal protein S6 kinase alpha-1 (Q15418 whole entry): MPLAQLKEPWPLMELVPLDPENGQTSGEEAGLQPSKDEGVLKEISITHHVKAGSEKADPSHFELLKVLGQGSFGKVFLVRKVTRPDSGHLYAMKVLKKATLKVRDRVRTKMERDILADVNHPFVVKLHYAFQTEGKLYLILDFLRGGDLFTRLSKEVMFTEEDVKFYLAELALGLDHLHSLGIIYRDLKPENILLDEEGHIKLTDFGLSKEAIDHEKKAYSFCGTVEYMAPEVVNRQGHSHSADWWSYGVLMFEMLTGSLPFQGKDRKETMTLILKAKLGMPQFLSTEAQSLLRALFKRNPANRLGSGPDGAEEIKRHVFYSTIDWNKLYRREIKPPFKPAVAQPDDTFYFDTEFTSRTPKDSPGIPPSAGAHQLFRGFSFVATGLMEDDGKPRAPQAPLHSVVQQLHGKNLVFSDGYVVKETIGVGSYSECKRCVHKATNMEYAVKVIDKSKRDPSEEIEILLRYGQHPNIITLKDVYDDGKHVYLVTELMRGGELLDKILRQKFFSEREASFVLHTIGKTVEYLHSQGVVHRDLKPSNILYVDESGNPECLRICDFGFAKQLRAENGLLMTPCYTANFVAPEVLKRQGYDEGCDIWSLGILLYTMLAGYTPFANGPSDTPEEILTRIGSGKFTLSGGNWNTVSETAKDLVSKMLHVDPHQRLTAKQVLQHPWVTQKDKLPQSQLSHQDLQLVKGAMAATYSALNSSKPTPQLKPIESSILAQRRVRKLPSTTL

[25] = Selectivity interaction (Kinase panel (cellular selectivity, Bright-Glo proliferation assay in BaF3 Cell line, Promega)) EUB0000678a ROS1
[26] = Selectivity interaction (Kinase panel (cellular selectivity, Bright-Glo proliferation assay in BaF3 Cell line, Promega)) EUB0000678a TEK
[27] = Selectivity interaction (Kinase panel (cellular selectivity, Bright-Glo proliferation assay in BaF3 Cell line, Promega)) EUB0000678a JAK2
[28] = molecular target: Hepatocyte growth factor receptor (Homo sapiens, UniProt P08581); assay: Selectivity interaction (Kinase panel (Enzymatic assay, microfluidic mobility shift readout, Caliper lifesciences, conc. ATP = Km for each kinase)) EUB0000678a MET
[29] = Selectivity interaction (Kinase panel (cellular selectivity, Bright-Glo proliferation assay in BaF3 Cell line, Promega)) EUB0000678a FLT4
[30] = Selectivity interaction (Kinase panel (cellular selectivity, Bright-Glo proliferation assay in BaF3 Cell line, Promega)) EUB0000678a BMX
[31] = Selectivity interaction (Kinase panel (cellular selectivity, Bright-Glo proliferation assay in BaF3 Cell line, Promega)) EUB0000678a INSR
[32] = molecular target: T6, Tyrosine-protein kinase SYK (Homo sapiens, UniProt P43405); assay: Selectivity interaction (Kinase panel (Enzymatic assay, microfluidic mobility shift readout, Caliper lifesciences, conc. ATP = Km for each kinase)) EUB0000678a SYK
[33] = Selectivity interaction (Kinase panel (cellular selectivity, Bright-Glo proliferation assay in BaF3 Cell line, Promega)) EUB0000678a MET
[34] = Selectivity interaction (Kinase panel (cellular selectivity, Bright-Glo proliferation assay in BaF3 Cell line, Promega)) EUB0000678a TYK2
[35] = Selectivity interaction (Kinase panel (cellular selectivity, Bright-Glo proliferation assay in BaF3 Cell line, Promega)) EUB0000678a NTRK2
[36] = molecular target: Non-receptor tyrosine-protein kinase TYK2 (Homo sapiens, UniProt P29597); assay: Selectivity interaction (Kinase panel (Enzymatic assay, microfluidic mobility shift readout, Caliper lifesciences, conc. ATP = Km for each kinase)) EUB0000678a TYK2
[37] = molecular target: Cyclin-dependent kinase 2 (Homo sapiens, UniProt P24941); assay: Selectivity interaction (Kinase panel (Enzymatic assay, microfluidic mobility shift readout, Caliper lifesciences, conc. ATP = Km for each kinase)) EUB0000678a CDK2
[38] = Selectivity interaction (Kinase panel (cellular selectivity, Bright-Glo proliferation assay in BaF3 Cell line, Promega)) EUB0000678a KDR; remark: listed apart in the source
[39] = molecular target: T7, cAMP-dependent protein kinase catalytic subunit alpha (Homo sapiens, UniProt P17612); assay: Selectivity interaction (Kinase panel (Enzymatic assay, microfluidic mobility shift readout, Caliper lifesciences, conc. ATP = Km for each kinase)) EUB0000678a PRKACA
[40] = Selectivity interaction (Kinase panel (cellular selectivity, Bright-Glo proliferation assay in BaF3 Cell line, Promega)) EUB0000678a EPHB1
[41] = Selectivity interaction (Kinase panel (cellular selectivity, Bright-Glo proliferation assay in BaF3 Cell line, Promega)) EUB0000678a SYK
[42] = Selectivity interaction (Kinase panel (cellular selectivity, Bright-Glo proliferation assay in BaF3 Cell line, Promega)) EUB0000678a ALK
[43] = molecular target: T6, Tyrosine-protein kinase SYK; assay: Selectivity interaction (Kinase panel (radiometric inhibition assay)) EUB0000651a SYK
[44] = molecular target: Protein kinase C alpha type (Homo sapiens, UniProt P17252); assay: Selectivity interaction (Kinase panel (radiometric inhibition assay)) EUB0000651a PRKCA
[45] = molecular target: Leukocyte tyrosine kinase receptor (Homo sapiens, UniProt P29376); assay: Selectivity interaction (Kinase panel (radiometric inhibition assay)) EUB0000651a LTK
Chain of Leukocyte tyrosine kinase receptor (P29376 whole entry): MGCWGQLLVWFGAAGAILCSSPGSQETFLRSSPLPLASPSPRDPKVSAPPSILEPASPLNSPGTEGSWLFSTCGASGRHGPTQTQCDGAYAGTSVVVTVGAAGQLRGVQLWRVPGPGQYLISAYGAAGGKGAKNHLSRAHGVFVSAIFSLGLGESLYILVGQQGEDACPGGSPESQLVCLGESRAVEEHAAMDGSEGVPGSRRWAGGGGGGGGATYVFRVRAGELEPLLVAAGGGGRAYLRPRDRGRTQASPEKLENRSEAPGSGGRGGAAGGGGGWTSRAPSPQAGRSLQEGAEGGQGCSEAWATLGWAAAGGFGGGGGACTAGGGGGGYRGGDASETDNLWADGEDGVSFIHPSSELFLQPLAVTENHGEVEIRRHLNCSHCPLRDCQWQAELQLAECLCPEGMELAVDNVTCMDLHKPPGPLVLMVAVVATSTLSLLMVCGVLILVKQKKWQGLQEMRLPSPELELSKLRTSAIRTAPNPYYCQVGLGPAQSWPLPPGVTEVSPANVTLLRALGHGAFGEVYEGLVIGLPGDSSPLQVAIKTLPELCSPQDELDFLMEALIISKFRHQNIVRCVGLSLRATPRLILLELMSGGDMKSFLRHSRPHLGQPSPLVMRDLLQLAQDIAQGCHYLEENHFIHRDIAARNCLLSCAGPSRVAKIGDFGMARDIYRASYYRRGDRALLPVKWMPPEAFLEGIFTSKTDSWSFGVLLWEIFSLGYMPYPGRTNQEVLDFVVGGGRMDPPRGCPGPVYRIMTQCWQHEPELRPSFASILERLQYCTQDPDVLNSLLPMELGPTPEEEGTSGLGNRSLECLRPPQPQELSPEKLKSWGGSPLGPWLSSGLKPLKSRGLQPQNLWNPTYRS

[46] = molecular target: T5, Calcium/calmodulin-dependent protein kinase type II subunit alpha; assay: Selectivity interaction (Kinase panel (radiometric inhibition assay)) EUB0000651a CAMK2A
[47] = molecular target: T7, cAMP-dependent protein kinase catalytic subunit alpha; assay: Selectivity interaction (Kinase panel (radiometric inhibition assay)) EUB0000651a PRKACA

CN(c1ncccc1CNc1ccnc(-c2cc3cc(Cl)ccc3[nH]2)n1)S(C)(=O)=O
IC50 [1]: > 10 µM | IC50 [2]: > 10 µM | dTM [3]: 0.3 K | IC50 [4]: > 10 µM | IC50 [5]: > 10 µM | IC50 (SRSF protein kinase 1 [6]): > 50 µM | IC50 [7]: > 10 µM | IC50 [8]: > 10 µM | IC50 [9]: > 10 µM | IC50 [10]: > 10 µM | dTM (SRSF protein kinase 1 [11]): 0.5 K

CCN1CCN(c2ccc(Nc3cc(N(C)C(=O)Nc4c(Cl)c(OC)cc(OC)c4Cl)ncn3)cc2)CC1 [INFIGRATINIB]
IC50 [12]: > 9 µM | IC50 [13]: 3.35 µM | IC50 [14]: 1.51 µM | IC50 [15]: > 10 µM | IC50 [16]: > 9 µM | IC50 [17]: > 10 µM | IC50 [18]: 2.97 µM | IC50 [19]: 3.02 µM | IC50 [20]: > 10 µM | IC50 [21]: > 10 µM | IC50 [22]: 0.938 µM | IC50 [23]: > 10 µM | IC50 [24]: > 10 µM | IC50 [25]: 3.26 µM | IC50 [26]: 2.05 µM | IC50 [27]: 2.88 µM | IC50 [28]: > 10 µM | IC50 [29]: 2.07 µM | IC50 [30]: 3.41 µM | IC50 [31]: 3.37 µM | IC50 [32]: > 10 µM | IC50 [33]: 3.01 µM | IC50 [34]: 3.3 µM | IC50 [35]: 3.14 µM | IC50 [36]: > 10 µM | IC50 [37]: > 10 µM | IC50 [38]: 1.45 µM | IC50 [39]: > 10 µM | IC50 [40]: 3.04 µM | IC50 [41]: 5.36 µM | IC50 [42]: 3.08 µM

COc1cc(C)c(Sc2cnc(NC(=O)c3ccc(CNC(C)C(C)(C)C)cc3)s2)cc1C(=O)N1CCN(C(C)=O)CC1 (configuration not stated)
IC50 [43]: > 50 µM | IC50 [44]: 24 µM | IC50 [45]: 2.4 µM | IC50 [46]: 33.5 µM | IC50 [47]: > 50 µM
